Measurements from article PMC11721942 (Journal of Enzyme Inhibition and Medicinal Chemistry, 2023).
Structures can show the parent of a compound that is named as a salt. Where two headings read alike, the source gives them in different places.

What was measured:
yeast α-glucosidase = yeast α-glucosidase (Saccharomyces cerevisiae, UniProt P53341); format: biochemical
α-glucosidase (yeast) = conditions: cited from earlier work
[1] = molecular target: ER glucosidase II (rat liver); conditions: read-out: Inhibitory activity IC50; cited from earlier work
SARS-CoV-2 [2] = conditions: Vero E6 cells; cited from earlier work
A549-ACE2 cells = test: Cell toxicity assay; format: cell-based, human
α-glucosidase in rice = conditions: cited from earlier work
human α-galactosidase A = molecular target: T1, human α-galactosidase A (Homo sapiens, UniProt P06280); format: biochemical
T1 sequence (P06280 32-429): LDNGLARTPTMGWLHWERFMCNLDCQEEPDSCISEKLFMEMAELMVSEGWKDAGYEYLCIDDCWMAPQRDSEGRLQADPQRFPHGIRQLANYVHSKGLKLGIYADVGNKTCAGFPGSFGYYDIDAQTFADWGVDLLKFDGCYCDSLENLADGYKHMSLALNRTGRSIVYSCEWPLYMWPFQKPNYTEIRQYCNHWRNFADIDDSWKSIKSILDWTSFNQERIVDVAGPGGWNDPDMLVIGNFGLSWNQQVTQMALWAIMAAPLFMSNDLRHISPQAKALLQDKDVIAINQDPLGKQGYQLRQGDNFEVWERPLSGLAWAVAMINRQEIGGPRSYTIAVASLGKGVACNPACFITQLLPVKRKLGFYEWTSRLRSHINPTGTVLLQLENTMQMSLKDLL

[3] = tested on: influenza haemagglutinin folding process in ER; conditions: cited from earlier work
SARS-CoV-2 [4] = conditions: A549-ACE2 cells; cited from earlier work
severe COVID-19 = severe COVID-19 patients; cited from earlier work

Chain of yeast α-glucosidase (P53341 whole entry): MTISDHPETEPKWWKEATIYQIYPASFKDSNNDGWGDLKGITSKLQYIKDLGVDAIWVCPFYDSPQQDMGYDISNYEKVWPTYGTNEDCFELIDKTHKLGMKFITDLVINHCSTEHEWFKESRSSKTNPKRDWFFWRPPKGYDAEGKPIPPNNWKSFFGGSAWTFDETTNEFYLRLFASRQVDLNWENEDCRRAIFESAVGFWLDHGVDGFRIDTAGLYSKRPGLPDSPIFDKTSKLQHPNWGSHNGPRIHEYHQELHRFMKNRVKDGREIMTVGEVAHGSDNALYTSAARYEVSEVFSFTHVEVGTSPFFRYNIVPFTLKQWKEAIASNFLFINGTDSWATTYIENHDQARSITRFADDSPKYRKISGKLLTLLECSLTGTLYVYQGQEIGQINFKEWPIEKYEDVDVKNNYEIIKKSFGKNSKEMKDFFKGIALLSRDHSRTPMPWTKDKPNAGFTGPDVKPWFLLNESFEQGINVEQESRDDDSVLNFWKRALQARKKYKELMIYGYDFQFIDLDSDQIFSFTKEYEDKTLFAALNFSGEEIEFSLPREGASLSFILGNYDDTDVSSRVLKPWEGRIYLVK

CCCCN1C[C@H](O)[C@@H](O)[C@H](O)[C@H]1CO [Compound 1, N-butyldeoxynojirimycin]
IC50 (yeast α-glucosidase): > 500 µM | Inhibitory activity, % at 1 mM (α-glucosidase (yeast); 1 mM): 12.7% | IC50 [1]: 13 µM | EC50 (SARS-CoV-2 [2]): 41 ± 22 µM

OC[C@H]1NC[C@H](O)[C@@H](O)[C@@H]1O [Compound 2, deoxynojirimycin]
IC50 [1]: 16 µM

O[C@H]1[C@H]2[C@H](O)CCCN2C[C@H]1O [Compound 3, swainsonine]
cytotoxicity at EC90 concentrations (A549-ACE2 cells): cytotoxicity at EC90 concentrations

OCCN1C[C@H](O)[C@@H](O)[C@H](O)[C@H]1CO [Compound 8, miglitol]
IC50 (yeast α-glucosidase): > 500 µM | IC50 (α-glucosidase (yeast)): > 1000 µM | IC50 (α-glucosidase (yeast); read-out: Inhibitory activity IC50, ref 37): 9880 µM | IC50 (α-glucosidase (yeast); read-out: Inhibitory activity IC50, ref 46): 41.3 µM | IC50 (α-glucosidase in rice): 0.05 µM

OC[C@@H]1[C@@H](O)[C@H](O)[C@@H](O)CN1CCCCCC12CC(C1)C2 [Compound 22, (2 R,3R,4R,5S)-1–(5-(Bicyclo[1.1.1]pentan-1-yl)pentyl)-3,4,5-trihydroxy-2-(hydroxymethyl)piperidin-1-ium chloride]
IC50 (yeast α-glucosidase): 218 µM

OC[C@H]1NNC[C@@H](O)[C@H]1O [Compound 40, (3 R,4S,5R)-3-(hydroxymethyl)hexahydropyridazine-4,5-diol hydrochloride]
IC50 (human α-galactosidase A): > 100 µM

CC/C(=C(\c1ccccc1)c1ccc(OCCN(C)C)cc1)c1ccccc1 [Compound 72, tamoxifen]
cytotoxicity, concentration relative to antiviral EC90 (A549-ACE2 cells): 100 fold

CN1C[C@H](O)[C@@H](O)[C@H](O)[C@H]1CO [Compound 75, (2R,3R,4R,5S)-2-(hydroxymethyl)-1-methylpiperidine-3,4,5-triol]
IC50 (yeast α-glucosidase): 572 µM

CCCCCCCCCN1C[C@H](O)[C@@H](O)[C@H](O)[C@H]1CO [Compound 76, (2R,3R,4R,5S)-2-(hydroxymethyl)-1-nonylpiperidine-3,4,5-triol]
IC50 (yeast α-glucosidase): 70 µM

OC[C@@H]1[C@@H](O)[C@H](O)[C@@H](O)CN1CCCCCOCC12CC3CC(CC(C3)C1)C2 [Compound 77, (2 R,3R,4R,5S)-1–(5-(adamantan-1-ylmethoxy)pentyl)-2-(hydroxymethyl)piperidine-3,4,5-triol]
IC50 (yeast α-glucosidase): 67 µM | concentration at which inhibition occurred [3]: 200 µM

CN1C[C@H](O)[C@@H](O)[C@@H](O)[C@H]1CO [Compound 87, (2R,3S,4R,5S)-2-(hydroxymethyl)-1-methylpiperidine-3,4,5-triol]
IC50 (human α-galactosidase A): 5.1 µM

CCCCCCCCCN1C[C@H](O)[C@@H](O)[C@@H](O)[C@H]1CO [Compound 89, (2R,3S,4R,5S)-2-(hydroxymethyl)-1-nonylpiperidine-3,4,5-triol]
IC50 (human α-galactosidase A): > 100 µM

CCCCCCCCCN1CC[C@@H](O)[C@@H](O)[C@H]1CO [Compound 94, (2R,3S,4R)-2-(hydroxymethyl)-1-nonylpiperidine-3,4-diol]
IC50 (human α-galactosidase A): > 100 µM

CN1NC[C@@H](O)[C@@H](O)[C@H]1CO [Compound 104, (4R,5S,6R)-6-(hydroxymethyl)-1-methylhexahydropyridazine-4,5-diol hydrochloride]
IC50 (human α-galactosidase A): > 100 µM

COCCCCCCCCCN1C[C@H](O)[C@@H](O)[C@H](O)[C@H]1CO [UV-4]
EC50 (SARS-CoV-2 [4]): 4 µM

CCCC(=O)O[C@H]1CN2CC[C@H](O)[C@@H]2[C@@H](O)[C@@H]1O [celgosivir]
EC50 (SARS-CoV-2 [2]): 1 ± 0.2 µM

C[C@@H]1C[C@H]2[C@@H]3CCC4=CC(=O)C=C[C@]4(C)[C@@]3(F)[C@@H](O)C[C@]2(C)[C@@]1(O)C(=O)CO [dexamethasone]
reduction of mortality (severe COVID-19): 30%
